Laboratory results from patent US12129237B2, “Substituted diaminocarboxamide and diaminocarbonitrile pyrimidines, compositions thereof, and methods of treatment therewith” (SIGNAL PHARMACEUTICALS, LLC, priority 2011, dated 2024).

Each compound was assayed against T1, JNK1 (Homo sapiens, UniProt P45983) (assay: JNK1 biochemical assays (one or more of: time resolved fluorescence, Z'-LYTE Cascade, radioactive)). Conditions: one or more of the JNK1 biochemical assays; read-out: Act. Level (JNK1 IC50 activity level).
T1 construct: purchased Carna Biosciences
T1 sequence (P45983 whole entry): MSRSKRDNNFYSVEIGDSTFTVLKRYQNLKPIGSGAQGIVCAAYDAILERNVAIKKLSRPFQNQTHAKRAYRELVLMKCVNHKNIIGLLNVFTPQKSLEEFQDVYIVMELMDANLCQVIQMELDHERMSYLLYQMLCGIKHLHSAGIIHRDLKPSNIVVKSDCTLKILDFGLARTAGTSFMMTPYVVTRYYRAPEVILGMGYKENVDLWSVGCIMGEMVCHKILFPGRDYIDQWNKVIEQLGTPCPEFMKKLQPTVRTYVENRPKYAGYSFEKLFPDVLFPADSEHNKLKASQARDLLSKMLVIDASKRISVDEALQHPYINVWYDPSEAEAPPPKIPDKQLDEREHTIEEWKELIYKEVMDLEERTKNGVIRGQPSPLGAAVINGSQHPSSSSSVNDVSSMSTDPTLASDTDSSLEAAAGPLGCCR

IC50, < 200 nM:
CC1(Nc2nc(N[C@H]3CC[C@H](O)CC3)ncc2C(N)=O)CCCCC1 [Example 357, 2-((1r,4r)-4-hydroxycyclohexylamino)-4-(1-methylcyclohexylamino)pyrimidine-5-carboxamide]
CO[C@H]1CC[C@H](Nc2ncc(C(N)=O)c(NC3(C)CCCCC3)n2)CC1 [Example 358, 2-((1r,4r)-4-methoxycyclohexylamino)-4-(1-methylcyclohexylamino)pyrimidine-5-carboxamide]
CCO[C@H]1CC[C@H](Nc2ncc(C(N)=O)c(NC3(C)CCCCC3)n2)CC1 [Example 359, 2-((1r,4r)-4-ethoxycyclohexylamino)-4-(1-methylcyclohexylamino)pyrimidine-5-carboxamide]
CCO[C@H]1CC[C@H](Nc2ncc(C(N)=O)c(NC3(CC)CCC3)n2)CC1 [Example 360, 2-((1r,4r)-4-ethoxycyclohexylamino)-4-(1-ethylcyclobutylamino)pyrimidine-5-carboxamide]
CCC1(Nc2nc(N[C@H]3CC[C@H](OC)CC3)ncc2C(N)=O)CCC1 [Example 361, 4-(1-ethylcyclobutylamino)-2-((1r,4r)-4-methoxycyclohexylamino)pyrimidine-5-carboxamide]
CCC1(Nc2nc(N[C@H]3CC[C@H](O)CC3)ncc2C(N)=O)CCC1 [Example 362, 4-(1-ethylcyclobutylamino)-2-((1r,4r)-4-hydroxycyclohexylamino)pyrimidine-5-carboxamide]
CCC(CC)Nc1nc(N[C@H]2CC[C@H](O)CC2)ncc1C(N)=O [Example 363, 2-((1r,4r)-4-hydroxycyclohexylamino)-4-(pentan-3-ylamino)pyrimidine-5-carboxamide]
C[C@@H]1CC[C@@H](Nc2nc(NC3CCCC3)ncc2C(N)=O)C[C@H]1O [Example 364, 2-(cyclopentylamino)-4-((1R,3R,4R)-3-hydroxy-4-methylcyclohexylamino)pyrimidine-5-carboxamide]
CC(C)(C)Nc1ncc(C(N)=O)c(N[C@@H]2CCC[C@@H]2CO)n1 [Example 365, 2-(tert-butylamino)-4-((1R,2S)-2-(hydroxymethyl)cyclopentylamino)pyrimidine-5-carboxamide]
CC(C)C(C)(C)Nc1ncc(C(N)=O)c(N[C@@H]2CC[C@@H](C)[C@H](O)C2)n1 [Example 366, 2-(2,3-dimethylbutan-2-ylamino)-4-((1R,3R,4R)-3-hydroxy-4-methylcyclohexylamino)pyrimidine-5-carboxamide]
C[C@@H]1CC[C@@H](Nc2nc(NCC(C)(C)C)ncc2C(N)=O)C[C@H]1O [Example 367, 4-((1R,3R,4R)-3-hydroxy-4-methylcyclohexylamino)-2-(neopentylamino)pyrimidine-5-carboxamide]
NC(=O)c1cnc(N[C@H]2CC[C@H](OC3CC3)CC2)nc1NC12CC(C1)C2 [Example 368, 4-(bicyclo[1.1.1]pentan-1-ylamino)-2-((1r,4r)-4-cyclopropoxycyclohexylamino)pyrimidine-5-carboxamide]
CC(C)CC(C)(C)Nc1nc(N[C@H]2CC[C@H](O)CC2)ncc1C(N)=O [Example 369, 4-(2,4-dimethylpentan-2-ylamino)-2-((1r,4r)-4-hydroxycyclohexylamino)pyrimidine-5-carboxamide]
COC12CCC(Nc3ncc(C(N)=O)c(NC4CCC[C@](C)(O)C4)n3)(CC1)CC2 (stereo partly drawn) [Example 370, 4-((3S)-3-hydroxy-3-methylcyclohexylamino)-2-(4-methoxybicyclo[2.2.2]octan-1-ylamino)pyrimidine-5-carboxamide]
CC(C)(C)Nc1nc(N[C@H]2CC[C@@](C)(O)CC2)ncc1C(N)=O [Example 371, 4-(tert-butylamino)-2-((1s,4s)-4-hydroxy-4-methylcyclohexylamino)pyrimidine-5-carboxamide]
CC[C@H](Nc1nc(N[C@H]2CC[C@H](OC)CC2)ncc1C(N)=O)C1CC1 [Example 372, 4-((S)-1-cyclopropylpropylamino)-2-((1r,4S)-4-methoxycyclohexylamino)pyrimidine-5-carboxamide]
CCO[C@H]1CC[C@H](Nc2ncc(C(N)=O)c(N[C@@H](CC)C3CC3)n2)CC1 [Example 373, 4-((S)-1-cyclopropylpropylamino)-2-((1r,4S)-4-ethoxycyclohexylamino)pyrimidine-5-carboxamide]
CC[C@@H](Nc1nc(N[C@H]2CC[C@H](OC)CC2)ncc1C(N)=O)C1CC1 [Example 374, 4-((R)-1-cyclopropylpropylamino)-2-((1r,4R)-4-methoxycyclohexylamino)pyrimidine-5-carboxamide]
CCO[C@H]1CC[C@H](Nc2ncc(C(N)=O)c(N[C@H](CC)C3CC3)n2)CC1 [Example 375, 4-((R)-1-cyclopropylpropylamino)-2-((1r,4R)-4-ethoxycyclohexylamino)pyrimidine-5-carboxamide]
CC(C)(C)Nc1nc(N[C@@H]2CCCC[C@H](O)C2)ncc1C(N)=O [Example 376, 4-(tert-butylamino)-2-((1R,3S)-3-hydroxycycloheptylamino)pyrimidine-5-carboxamide]
NC(=O)c1cnc(NC2CC2)nc1N[C@@H]1CCCC[C@H](O)C1 [Example 377, 2-(cyclopropylamino)-4-((1R,3S)-3-hydroxycycloheptylamino)pyrimidine-5-carboxamide]
C[C@]1(O)CCC[C@@H](Nc2nc(NC3CC3)ncc2C(N)=O)C1 [Example 378, 2-(cyclopropylamino)-4-((1R,3S)-3-hydroxy-3-methylcyclohexylamino)pyrimidine-5-carboxamide]
NC(=O)c1cnc(NC2CC2)nc1N[C@@H]1CCC[C@H](O)C1 [Example 379, 2-(cyclopropylamino)-4-((1R,3S)-3-hydroxycyclohexylamino)pyrimidine-5-carboxamide]
CC(C)(C)Nc1nc(N[C@@H]2CCC[C@](C)(O)C2)ncc1C(N)=O [Example 380, 4-(tert-butylamino)-2-((1R,3S)-3-hydroxy-3-methylcyclohexylamino)pyrimidine-5-carboxamide]
CCC(C)(C)Nc1nc(N[C@H]2CC[C@H](OC)CC2)ncc1C(N)=O [Example 381, 2-((1r,4r)-4-methoxycyclohexylamino)-4-(tert-pentylamino)pyrimidine-5-carboxamide]
CCC(C)(C)Nc1nc(N[C@H]2CC[C@H](OC3CC3)CC2)ncc1C(N)=O [Example 382, 2-((1r,4r)-4-cyclopropoxycyclohexylamino)-4-(tert-pentylamino)pyrimidine-5-carboxamide]
CC[C@@H](C)Nc1ncc(C(N)=O)c(N[C@@H]2CC[C@@H](C)[C@H](O)C2)n1 [Example 383, 2-(sec-butylamino)-4-((1R,3R,4R)-3-hydroxy-4-methylcyclohexylamino)pyrimidine-5-carboxamide]
CC[C@H](Nc1nc(N[C@H]2CC[C@H](O)CC2)ncc1C(N)=O)C1CC1 [Example 384, 4-((S)-1-cyclopropylpropylamino)-2-((1r,4S)-4-hydroxycyclohexylamino)pyrimidine-5-carboxamide]
CC[C@@H](Nc1nc(N[C@H]2CC[C@H](O)CC2)ncc1C(N)=O)C1CC1 [Example 385, 4-((R)-1-cyclopropylpropylamino)-2-((1r,4R)-4-hydroxycyclohexylamino)pyrimidine-5-carboxamide]
CC(C)(C)Nc1nc(N[C@@H]2CCCC[C@@H](O)C2)ncc1C(N)=O [Example 386, 4-(tert-butylamino)-2-((1R,3R)-3-hydroxycycloheptylamino)pyrimidine-5-carboxamide]
CC(C)(C)Nc1nc(N[C@H]2CCCC[C@H](O)C2)ncc1C(N)=O [Example 387, 4-(tert-butylamino)-2-((1S,3S)-3-hydroxycycloheptylamino)pyrimidine-5-carboxamide]
CC(C)(C)Nc1nc(N[C@H]2CCCC[C@@H](O)C2)ncc1C(N)=O [Example 388, 4-(tert-butylamino)-2-((1S,3R)-3-hydroxycycloheptylamino)pyrimidine-5-carboxamide]
CC(C)(C)Nc1nc(NC2(C)CCOCC2)ncc1C(N)=O [Example 389, 4-(tert-butylamino)-2-(4-methyltetrahydro-2H-pyran-4-ylamino)pyrimidine-5-carboxamide]
CCCC(C)(C)Nc1nc(N[C@H]2CC[C@H](O)CC2)ncc1C(N)=O [Example 390, 2-((1r,4r)-4-hydroxycyclohexylamino)-4-(2-methylpentan-2-ylamino)pyrimidine-5-carboxamide]
CCCC(C)(C)Nc1nc(N[C@H]2CC[C@H](OCC)CC2)ncc1C(N)=O [Example 391, 2-((1r,4r)-4-ethoxycyclohexylamino)-4-(2-methylpentan-2-ylamino)pyrimidine-5-carboxamide]
CCCC(C)(C)Nc1nc(N[C@H]2CC[C@H](OC)CC2)ncc1C(N)=O [Example 392, 2-((1r,4r)-4-methoxycyclohexylamino)-4-(2-methylpentan-2-ylamino)pyrimidine-5-carboxamide]
CC12CC(Nc3nc(N[C@H]4CC[C@H](O)CC4)ncc3C(N)=O)(C1)C2 [Example 393, 2-((1r,4r)-4-hydroxycyclohexylamino)-4-(3-methylbicyclo[1.1.1]pentan-1-ylamino)pyrimidine-5-carboxamide]
